Experimental data taken from patent publication US8435980B2 (AbbVie Inc., priority 2009, dated 2013).

Biological target: T1, Cdc7 (BEV coexpressed huCDC7/DBF4) (Homo sapiens, UniProt O00311)
T1 construct: made in house; host or cells: BEV (baculovirus expression vector) co-expression; insect cells are implied but no cell line is named
Assay: Cdc7 enzyme inhibition assay ([33P]ATP, biotinylated peptide substrate, FlashPlate)
Format: biochemical
Details: Table 3; enzyme inhibition data (Ki)
Protocol: Cdc7 (BEV coexpressed huCDC7/DBF4) is prepared internally. Cdc7 assays are conducted as follows with final concentrations as listed. […] Reactions are quenched after 1 hr by the addition of 90 μL stop buffer (50 mM EDTA, 2M NaCl). […] (Ki) for exemplary compounds.

T1 sequence (O00311 whole entry): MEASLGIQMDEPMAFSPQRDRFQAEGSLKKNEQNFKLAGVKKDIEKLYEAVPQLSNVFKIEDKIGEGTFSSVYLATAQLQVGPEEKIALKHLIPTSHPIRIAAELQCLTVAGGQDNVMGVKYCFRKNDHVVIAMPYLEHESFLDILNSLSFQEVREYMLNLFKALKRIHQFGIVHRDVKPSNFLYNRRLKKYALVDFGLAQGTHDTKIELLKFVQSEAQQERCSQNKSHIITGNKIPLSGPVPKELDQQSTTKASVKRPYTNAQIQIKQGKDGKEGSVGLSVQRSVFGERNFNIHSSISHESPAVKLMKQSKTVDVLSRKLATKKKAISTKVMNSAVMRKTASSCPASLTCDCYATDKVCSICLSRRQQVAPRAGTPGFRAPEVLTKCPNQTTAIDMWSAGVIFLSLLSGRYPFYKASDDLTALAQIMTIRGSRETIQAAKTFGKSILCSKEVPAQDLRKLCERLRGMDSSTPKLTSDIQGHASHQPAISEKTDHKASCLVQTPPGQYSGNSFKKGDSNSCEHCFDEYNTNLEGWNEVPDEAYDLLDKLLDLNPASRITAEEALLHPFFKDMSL
T1 sequence (Q9UBU7 whole entry partner): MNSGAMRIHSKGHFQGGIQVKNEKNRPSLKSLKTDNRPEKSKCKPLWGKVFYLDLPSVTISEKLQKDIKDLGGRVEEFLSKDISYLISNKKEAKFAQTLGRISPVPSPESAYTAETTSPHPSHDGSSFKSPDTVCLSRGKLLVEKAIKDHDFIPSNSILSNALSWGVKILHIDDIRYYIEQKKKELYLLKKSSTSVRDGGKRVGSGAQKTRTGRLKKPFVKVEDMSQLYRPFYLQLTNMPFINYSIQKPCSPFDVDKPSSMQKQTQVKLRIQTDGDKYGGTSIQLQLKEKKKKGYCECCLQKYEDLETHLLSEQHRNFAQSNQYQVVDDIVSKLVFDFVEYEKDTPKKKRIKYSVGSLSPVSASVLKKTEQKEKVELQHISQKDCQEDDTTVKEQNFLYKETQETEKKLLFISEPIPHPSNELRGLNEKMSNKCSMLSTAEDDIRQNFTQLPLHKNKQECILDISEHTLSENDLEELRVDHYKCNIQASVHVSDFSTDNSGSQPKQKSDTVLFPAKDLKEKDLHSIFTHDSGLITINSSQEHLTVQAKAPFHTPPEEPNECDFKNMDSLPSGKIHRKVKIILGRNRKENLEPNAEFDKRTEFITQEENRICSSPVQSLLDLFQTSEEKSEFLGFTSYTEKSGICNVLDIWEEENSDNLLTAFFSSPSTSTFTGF

SMILES | Ki
O=S(=O)(N[C@@H]1CCCC[C@H]1Nc1cc(-c2c[nH]c3ncccc23)cc(Cl)n1)C1CC1 [Example 330, N-[(1R,2R)-2-{[6-chloro-4-(1H-pyrrolo[2,3-b]pyridin-3-yl)pyridin-2-yl]amino}cyclohexyl]cyclopropanesulfonamide] | 10 to 100 nM
O=S(=O)(Nc1cc(-c2c[nH]c3ncccc23)cc(Cl)n1)c1ccc(F)cc1 [Example 331, N-[6-chloro-4-(1H-pyrrolo[2,3-b]pyridin-3-yl)pyridin-2-yl]-4-fluorobenzenesulfonamide] | < 10 nM
O=S(=O)(Nc1cc(-c2c[nH]c3ncccc23)cc(Cl)n1)C1CC1 [Example 332, N-[6-chloro-4-(1H-pyrrolo[2,3-b]pyridin-3-yl)pyridin-2-yl]cyclopropanesulfonamide] | < 10 nM
CCN(CC)CC(C)(C)CNc1cc(-c2c[nH]c3ncccc23)cc(Cl)n1 [Example 333, N′-[6-chloro-4-(1H-pyrrolo[2,3-b]pyridin-3-yl)pyridin-2-yl]-N,N-diethyl-2,2-dimethylpropane-1,3-diamine] | < 10 nM
CCN(CC)[C@H]1CC[C@H](Nc2cc(-c3c[nH]c4ncccc34)cc(Cl)n2)CC1 [Example 334, trans-N′-[6-chloro-4-(1H-pyrrolo[2,3-b]pyridin-3-yl)pyridin-2-yl]-N,N-diethylcyclohexane-1,4-diamine] | < 10 nM
O=C1CC[C@H](C(=O)N[C@H]2CC[C@H](Nc3cc(-c4c[nH]c5ncccc45)cc(Cl)n3)CC2)N1 [Example 335, N-(trans-4-{[6-chloro-4-(1H-pyrrolo[2,3-b]pyridin-3-yl)pyridin-2-yl]amino}cyclohexyl)-5-oxo-D-prolinamide] | < 10 nM
O=C1CC[C@@H](C(=O)N[C@H]2CC[C@H](Nc3cc(-c4c[nH]c5ncccc45)cc(Cl)n3)CC2)N1 [Example 338, N-(trans-4-{[6-chloro-4-(1H-pyrrolo[2,3-b]pyridin-3-yl)pyridin-2-yl]amino}cyclohexyl)-5-oxo-L-prolinamide] | < 10 nM
CN1CCCCC1C(=O)NC1CCCC(Nc2cc(-c3c[nH]c4ncccc34)cc(Cl)n2)C1 (centres unmarked) [Example 339, N-(3-{[6-chloro-4-(1H-pyrrolo[2,3-b]pyridin-3-yl)pyridin-2-yl]amino}cyclohexyl)-1-methylpiperidine-2-carboxamide] | < 10 nM
O=C(CN1CCCCCC1)NC1CCCC(Nc2cc(-c3c[nH]c4ncccc34)cc(Cl)n2)C1 (centres unmarked) [Example 340, 2-(azepan-1-yl)-N-(3-{[6-chloro-4-(1H-pyrrolo[2,3-b]pyridin-3-yl)pyridin-2-yl]amino}cyclohexyl)acetamide] | < 10 nM
O=C(N[C@H]1CC[C@H](Nc2cc(-c3c[nH]c4ncccc34)cc(Cl)n2)CC1)C1CCCC1 [Example 341, N-(trans-4-{[6-chloro-4-(1H-pyrrolo[2,3-b]pyridin-3-yl)pyridin-2-yl]amino}cyclohexyl)cyclopentanecarboxamide] | < 10 nM
O=C(NC1CCCC(Nc2cc(-c3c[nH]c4ncccc34)cc(Cl)n2)C1)C1CCNC1 (centres unmarked) [Example 343, N-(3-{[6-chloro-4-(1H-pyrrolo[2,3-b]pyridin-3-yl)pyridin-2-yl]amino}cyclohexyl)pyrrolidine-3-carboxamide] | < 10 nM
O=C(NC1CCCC(Nc2cc(-c3c[nH]c4ncccc34)cc(Cl)n2)C1)C1CCNCC1 (centres unmarked) [Example 344, N-(3-{[6-chloro-4-(1H-pyrrolo[2,3-b]pyridin-3-yl)pyridin-2-yl]amino}cyclohexyl)piperidine-4-carboxamide] | < 10 nM
O=C(NC1CCCC(Nc2cc(-c3c[nH]c4ncccc34)cc(Cl)n2)C1)C1CCCNC1 (centres unmarked) [Example 345, N-(3-{[6-chloro-4-(1H-pyrrolo[2,3-b]pyridin-3-yl)pyridin-2-yl]amino}cyclohexyl)piperidine-3-carboxamide] | < 10 nM
CN1CCC(C(=O)NC2CCCC(Nc3cc(-c4c[nH]c5ncccc45)cc(Cl)n3)C2)C1 (centres unmarked) [Example 346, N-(3-{[6-chloro-4-(1H-pyrrolo[2,3-b]pyridin-3-yl)pyridin-2-yl]amino}cyclohexyl)-1-methylpyrrolidine-3-carboxamide] | < 10 nM
CN1CCC(C(=O)NC2CCCC(Nc3cc(-c4c[nH]c5ncccc45)cc(Cl)n3)C2)CC1 (centres unmarked) [Example 347, N-(3-{[6-chloro-4-(1H-pyrrolo[2,3-b]pyridin-3-yl)pyridin-2-yl]amino}cyclohexyl)-1-methylpiperidine-4-carboxamide] | < 10 nM

Continued, values first:

Ki | SMILES
10 to 100 nM | CN1CCCC(C(=O)NC2CCCC(Nc3cc(-c4c[nH]c5ncccc45)cc(Cl)n3)C2)C1 (centres unmarked) [Example 348, N-(3-{[6-chloro-4-(1H-pyrrolo[2,3-b]pyridin-3-yl)pyridin-2-yl]amino}cyclohexyl)-1-methylpiperidine-3-carboxamide]
10 to 100 nM | CN(C)C1(C(=O)NC2CCCC(Nc3cc(-c4c[nH]c5ncccc45)cc(Cl)n3)C2)CCC1 (centres unmarked) [Example 349, N-(3-{[6-chloro-4-(1H-pyrrolo[2,3-b]pyridin-3-yl)pyridin-2-yl]amino}cyclohexyl)-1-(dimethylamino)cyclobutanecarboxamide]
< 10 nM | C[C@@H](C(=O)NC1CCCC(Nc2cc(-c3c[nH]c4ncccc34)cc(Cl)n2)C1)N(C)C (stereo partly drawn) [Example 350, N-(3-{[6-chloro-4-(1H-pyrrolo[2,3-b]pyridin-3-yl)pyridin-2-yl]amino}cyclohexyl)-N~2~,N~2~-dimethyl-L-alaninamide]
< 10 nM | O=C(CNCCO)N[C@H]1CC[C@H](Nc2cc(-c3c[nH]c4ncccc34)cc(Cl)n2)CC1 [Example 352, N-(trans-4-{[6-chloro-4-(1H-pyrrolo[2,3-b]pyridin-3-yl)pyridin-2-yl]amino}cyclohexyl)-N~2~-(2-hydroxyethyl)glycinamide]
< 10 nM | O=C1c2ccccc2C(=O)N1CCS(=O)(=O)NC1CCCC(Nc2cc(-c3c[nH]c4ncccc34)cc(Cl)n2)C1 (centres unmarked) [Example 353, N-(3-{[6-chloro-4-(1H-pyrrolo[2,3-b]pyridin-3-yl)pyridin-2-yl]amino}cyclohexyl)-2-(1,3-dioxo-1,3-dihydro-2H-isoindol-2-yl)ethanesulfonamide]
< 10 nM | CC(C)(C)CNCC(=O)N[C@H]1CC[C@H](Nc2cc(-c3c[nH]c4ncccc34)cc(Cl)n2)CC1 [Example 355, N-(trans-4-{[6-chloro-4-(1H-pyrrolo[2,3-b]pyridin-3-yl)pyridin-2-yl]amino}cyclohexyl)-N~2~-(2,2-dimethylpropyl)glycinamide]
< 10 nM | CCN(CCO)CC(=O)N[C@H]1CC[C@H](Nc2cc(-c3c[nH]c4ncccc34)cc(Cl)n2)CC1 [Example 356, N-(trans-4-{[6-chloro-4-(1H-pyrrolo[2,3-b]pyridin-3-yl)pyridin-2-yl]amino}cyclohexyl)-N~2~-ethyl-N~2~-(2-hydroxyethyl)glycinamide]
< 10 nM | Clc1cc(-c2c[nH]c3ncccc23)cc(N[C@H]2CC[C@H](NC3CCNCC3)CC2)n1 [Example 357, trans-N-[6-chloro-4-(1H-pyrrolo[2,3-b]pyridin-3-yl)pyridin-2-yl]-N′-(piperidin-4-yl)cyclohexane-1,4-diamine]
< 10 nM | O=C1c2ccccc2C(=O)N1CCS(=O)(=O)N[C@H]1CC[C@H](Nc2cc(-c3c[nH]c4ncccc34)cc(Cl)n2)CC1 [Example 358, N-(trans-4-{[6-chloro-4-(1H-pyrrolo[2,3-b]pyridin-3-yl)pyridin-2-yl]amino}cyclohexyl)-2-(1,3-dioxo-1,3-dihydro-2H-isoindol-2-yl)ethanesulfonamide]
< 10 nM | Clc1cc(-c2c[nH]c3ncccc23)cc(NC2CCC(CC3CCC(NC4CCC4)CC3)CC2)n1 (centres unmarked) [Example 359, 6-chloro-N-(4-{[4-(cyclobutylamino)cyclohexyl]methyl}cyclohexyl)-4-(1H-pyrrolo[2,3-b]pyridin-3-yl)pyridin-2-amine]
< 10 nM | O=C(CN1CCCCC1)Nc1cc(-c2c[nH]c3ncccc23)cc(Cl)n1 [Example 360, N-[6-chloro-4-(1H-pyrrolo[2,3-b]pyridin-3-yl)pyridin-2-yl]-2-(piperidin-1-yl)acetamide]
< 10 nM | Clc1cc(-c2c[nH]c3ncccc23)cc(N[C@H]2CC[C@H](NC3CCN(C4CCC4)CC3)CC2)n1 [Example 361, trans-N-[6-chloro-4-(1H-pyrrolo[2,3-b]pyridin-3-yl)pyridin-2-yl]-N′-(1-cyclobutylpiperidin-4-yl)cyclohexane-1,4-diamine]
10 to 100 nM | CC(C)(C)OC(=O)N1CCC(C2CCC(Nc3cc(-c4c[nH]c5ncccc45)cc(Cl)n3)CC2)CC1 (centres unmarked) [Example 362, tert-butyl 4-(4-{[6-chloro-4-(1H-pyrrolo[2,3-b]pyridin-3-yl)pyridin-2-yl]amino}cyclohexyl)piperidine-1-carboxylate]
< 10 nM | CC(C)(C)OC(=O)N1CC(C(=O)N[C@H]2CC[C@H](Nc3cc(-c4c[nH]c5ncccc45)cc(Cl)n3)CC2)C1 [Example 364, tert-butyl 3-[(trans-4-{[6-chloro-4-(1H-pyrrolo[2,3-b]pyridin-3-yl)pyridin-2-yl]amino}cyclohexyl)carbamoyl]azetidine-1-carboxylate]
< 10 nM | O=C(C1CC1)N1CCC(C2CCC(Nc3cc(-c4c[nH]c5ncccc45)cc(Cl)n3)CC2)CC1 (centres unmarked) [Example 366, [4-(4-{[6-chloro-4-(1H-pyrrolo[2,3-b]pyridin-3-yl)pyridin-2-yl]amino}cyclohexyl)piperidin-1-yl](cyclopropyl)methanone]
< 10 nM | O=C(N[C@H]1CC[C@H](Nc2cc(-c3c[nH]c4ncccc34)cc(Cl)n2)CC1)C1CCN(CCO)CC1 [Example 367, N-(trans-4-{[6-chloro-4-(1H-pyrrolo[2,3-b]pyridin-3-yl)pyridin-2-yl]amino}cyclohexyl)-1-(2-hydroxyethyl)piperidine-4-carboxamide]
< 10 nM | O=C(NC1CCC(CC2CCC(Nc3cc(-c4c[nH]c5ncccc45)cc(Cl)n3)CC2)CC1)C1CC1 (centres unmarked) [Example 368, N-{4-[(4-{[6-chloro-4-(1H-pyrrolo[2,3-b]pyridin-3-yl)pyridin-2-yl]amino}cyclohexyl)methyl]cyclohexyl} cyclopropanecarboxamide]
